According to patent US12077555B2, “STAT degraders and uses thereof” (Kymera Therapeutics, Inc., priority 2019, dated 2024):
Like-named read-outs stand apart in the source and are kept apart here.

Molecular target: STAT3 (Homo sapiens, UniProt P40763)
Assay: STAT3 HiBiT degradation assay in transfected A549 cells
Assay type: cell-based
Design: expressed in transfected cells; host or cells: A549
In short: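 Transfected A549 cells (~2000/well) plated 24 h, then treated 24 h at 37 °C, 5% CO2 with a 3-fold, 10-point compound dilution. HiBiT lytic luminescence read after 10 min at room temperature; remaining STAT3 normalized to negative and positive controls, four-parameter fit. DC50 binned A <0.01, B 0.01–0.1, C 0.1–1.0, D >1.0 µM.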

[1] = read-out: STAT3 HiBiT A549 degradation 24 h: Average external-Abs DC50; A549, 24 h
[2] = A549, 24 h; read-out: STAT3 HiBiT A549 degradation 24 h: Average external-Abs DC50

Chain of STAT3 (P40763 whole entry): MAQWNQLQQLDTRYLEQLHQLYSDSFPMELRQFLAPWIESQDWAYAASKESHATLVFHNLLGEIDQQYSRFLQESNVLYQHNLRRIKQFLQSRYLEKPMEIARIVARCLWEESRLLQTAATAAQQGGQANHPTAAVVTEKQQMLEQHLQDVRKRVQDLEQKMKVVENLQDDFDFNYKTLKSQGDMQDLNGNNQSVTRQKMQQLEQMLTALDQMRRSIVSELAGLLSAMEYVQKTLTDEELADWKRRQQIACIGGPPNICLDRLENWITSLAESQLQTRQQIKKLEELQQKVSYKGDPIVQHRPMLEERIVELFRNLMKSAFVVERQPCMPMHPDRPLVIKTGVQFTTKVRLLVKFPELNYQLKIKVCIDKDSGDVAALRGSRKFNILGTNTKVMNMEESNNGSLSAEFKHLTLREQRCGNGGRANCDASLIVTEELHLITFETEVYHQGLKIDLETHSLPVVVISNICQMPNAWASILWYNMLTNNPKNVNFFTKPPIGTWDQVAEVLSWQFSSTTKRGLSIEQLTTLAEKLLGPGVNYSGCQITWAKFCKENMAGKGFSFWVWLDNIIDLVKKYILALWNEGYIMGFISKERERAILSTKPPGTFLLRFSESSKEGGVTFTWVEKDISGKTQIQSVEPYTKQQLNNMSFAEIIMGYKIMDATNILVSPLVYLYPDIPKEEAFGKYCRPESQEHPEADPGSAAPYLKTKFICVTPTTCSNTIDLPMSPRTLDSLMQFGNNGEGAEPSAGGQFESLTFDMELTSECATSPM

| SMILES | DC50 [1] [nM] | DC50 [2] [nM] |
| --- | --- | --- |
| Cn1c(=O)n([C@@H]2CCC(=O)NC2=O)c2ccc(C[C@H]3CC[C@@H](CC(=O)N4CC[C@H]5CC[C@@H](C(=O)N[C@@H](CCC(N)=O)C(=O)NC(c6ccccc6)c6ccccc6)N5C(=O)[C@@H](NC(=O)c5cc6cc(C(=O)P(=O)(O)O)ccc6[nH]5)C4)CC3)cc21 [Compound I-234, (2-(((5S,8S,10aR)-8-(((S)-5-amino-1-(benzhydrylamino)-1,5-dioxopentan-2-yl)carbamoyl)-3-(2-((1S,4R)-4-((1-((R)-2,6-dioxopiperidin-3-yl)-3-methyl-2-oxo-2,3-dihydro-1H-benzo[d]imidazol-5-yl)methyl)cyclohexyl)acetyl)-6-oxodecahydropyrrolo[1,2-a][1,5]diazocin-5-yl)carbamoyl)-1H-indole-5-carbonyl)phosphonic acid] | 10 to 100 |  |
| Cc1cc(CCCC(=O)N[C@H](C(=O)N2C[C@H](O)C[C@H]2C(=O)N[C@@H](C)c2ccc(-c3scnc3C)cc2)C(C)(C)C)c(F)c(OC[C@H](CCC(N)=O)NC(=O)[C@@H]2Cc3cccc4c3N2C(=O)[C@@H](NC(=O)c2cc3cc(C(=O)P(=O)(O)O)ccc3[nH]2)CC4)c1 [Compound I-235, diammonium 2-[[(2S,11S)-2-[[(2S)-4-carbamoyl-1-[2-fluoro-3-(3-[[(2S)-1-[(2S,4R)-4-hydroxy-2-[[(1S)-1-[4-(4-methyl-1,3-thiazol-5-yl)phenyl]ethyl]carbamoyl]pyrrolidin-1-yl]-3,3-dimethyl-1-oxobutan-2-yl]carbamoyl]propyl)-5-methyl-phenoxy]butan-2-yl]carbamoyl]-12-oxo-1-azatricyclo[6.4.1.0^[4,13]]trideca-4(13),5,7-trien-11-yl]carbamoyl]-1H-indole-5-carbonylphosphonate] |  | > 1000 |
| CC(=O)N1CC[C@H]2CC[C@@H](C(=O)N[C@@H](CCC(N)=O)COc3cc(C)cc(CCCCC(=O)N[C@H](C(=O)N4C[C@H](O)C[C@H]4C(=O)N[C@@H](C)c4ccc(-c5scnc5C)cc4)C(C)(C)C)c3F)N2C(=O)[C@@H](NC(=O)c2cc3cc(C(=O)P(=O)(O)O)ccc3[nH]2)C1 [Compound I-236, diammonium 2-[[(5S,8S,10aR)-3-acetyl-8-[[(2S)-4-carbamoyl-1-[2-fluoro-3-(4-[[(2S)-1-[(2S,4R)-4-hydroxy-2-[[(1S)-1-[4-(4-methyl-1,3-thiazol-5-yl)phenyl]ethyl]carbamoyl]pyrrolidin-1-yl]-3,3-dimethyl-1-oxobutan-2-yl]carbamoyl]butyl)-5-methylphenoxy]butan-2-yl]carbamoyl]-6-oxo-octahydropyrrolo[1,2-a][1,5]diazocin-5-yl]carbamoyl]-1H-indole-5-carbonylphosphonate] | 100 to 1000 |  |
| Cc1ncsc1-c1ccc([C@H](C)NC(=O)[C@@H]2C[C@@H](O)CN2C(=O)[C@@H](NC(=O)CCCCc2ccc(CCC[C@H](CCC(N)=O)NC(=O)[C@@H]3Cc4cccc5c4N3C(=O)[C@@H](NC(=O)c3cc4cc(C(=O)P(=O)(O)O)ccc4[nH]3)CC5)cc2)C(C)(C)C)cc1 [Compound I-237, diammonium 2-[[(2S,11S)-2-[[(3R)-1-carbamoyl-6-[4-(4-[[(2S)-1-[(2S,4R)-4-hydroxy-2-[[(1S)-1-[4-(4-methyl-1,3-thiazol-5-yl)phenyl]ethyl]carbamoyl]pyrrolidin-1-yl]-3,3-dimethyl-1-oxobutan-2-yl]carbamoyl]butyl)phenyl]hexan-3-yl]carbamoyl]-12-oxo-1-azatricyclo[6.4.1.0^[4,13]]trideca-4(13),5,7-trien-11-yl]carbamoyl]-1H-indole-5-carbonylphosphonate] |  | 10 to 100 |
| Cc1ncsc1-c1ccc([C@H](C)NC(=O)[C@@H]2C[C@@H](O)CN2C(=O)[C@@H](NC(=O)CCCCCc2ccc([C@H](CCC(N)=O)NC(=O)[C@@H]3Cc4cccc5c4N3C(=O)[C@@H](NC(=O)c3cc4cc(C(=O)P(=O)(O)O)ccc4[nH]3)CC5)nc2)C(C)(C)C)cc1 [Compound I-238] |  | 100 to 1000 |
| Cc1ncsc1-c1ccc([C@H](C)NC(=O)[C@@H]2C[C@@H](O)CN2C(=O)[C@@H](NC(=O)CCCCc2cccc(OC[C@H](CCC(N)=O)NC(=O)[C@@H]3CCCN3C(=O)[C@H](CC(C)C)NC(=O)c3cc4cc(C(=O)P(=O)(O)O)ccc4[nH]3)c2Cl)C(C)(C)C)cc1 [Compound I-239, diammonium 2-[[(2S)-1-[(2S)-2-[[(2S)-4-carbamoyl-1-[2-chloro-3-(4-[[(2S)-1-[(2S,4R)-4-hydroxy-2-[[(1S)-1-[4-(4-methyl-1,3-thiazol-5-yl)phenyl]ethyl]carbamoyl]pyrrolidin-1-yl]-3,3-dimethyl-1-oxobutan-2-yl]carbamoyl]butyl)phenoxy]butan-2-yl]carbamoyl]pyrrolidin-1-yl]-4-methyl-1-oxopentan-2-yl]carbamoyl]-1H-] |  | < 10 |
| Cc1ncsc1-c1ccc([C@H](C)NC(=O)[C@@H]2C[C@@H](O)CN2C(=O)[C@@H](NC(=O)CCCc2cccc(OC[C@H](CCC(N)=O)NC(=O)[C@@H]3CCCN3C(=O)[C@H](CC(C)C)NC(=O)c3cc4cc(C(=O)P(=O)(O)O)ccc4[nH]3)c2Cl)C(C)(C)C)cc1 [Compound I-240] |  | 10 to 100 |
| Cc1ncsc1-c1ccc([C@H](C)NC(=O)[C@@H]2C[C@@H](O)CN2C(=O)[C@@H](NC(=O)CCCCc2cccc(OC[C@H](CCC(N)=O)NC(=O)[C@@H]3Cc4cccc5c4N3C(=O)[C@@H](NC(=O)c3cc4cc(C(=O)P(=O)(O)O)ccc4[nH]3)CC5)c2Cl)C(C)(C)C)cc1 [Compound I-243] |  | < 10 |
| Cc1ncsc1-c1ccc([C@H](C)NC(=O)[C@@H]2C[C@@H](O)CN2C(=O)[C@@H](NC(=O)CCCCCc2cc(Cl)cc(OC[C@H](CCC(N)=O)NC(=O)[C@@H]3Cc4cccc5c4N3C(=O)[C@@H](NC(=O)c3cc4cc(C(=O)P(=O)(O)O)ccc4[nH]3)CC5)c2F)C(C)(C)C)cc1 [Compound I-244, 2-[[(2S,11S)-2-[[(2S)-4-carbamoyl-1-[5-chloro-2-fluoro-3-(5-[[(2S)-1-[(2S,4R)-4-hydroxy-2-[[(1S)-1-[4-(4-methyl-1,3-thiazol-5-yl)phenyl]ethyl]carbamoyl]pyrrolidin-1-yl]-3,3-dimethyl-1-oxobutan-2-yl]carbamoyl]pentyl)phenoxy]butan-2-yl]carbamoyl]-12-oxo-1-azatricyclo[6.4.1.0^[4,13]]trideca-4(13),5,7-trien-11-yl]carbamoyl]-1H-indole-5-carbonylphosphonic acid] |  | < 10 |
| Cn1c(=O)n(C2CCC(=O)NC2=O)c2ccc(CC3CCC(Cc4cc5c6c(c4)C[C@@H](C(=O)N[C@@H](CCC(N)=O)C(=O)NC(c4ccccc4)c4ccccc4)N6C(=O)[C@@H](NC(=O)c4cc6cc(C(=O)P(=O)(O)O)ccc6[nH]4)CC5)CC3)cc21 (stereo partly drawn) [Compound I-245, 2-[[(2S,11S)-2-[[(1S)-3-carbamoyl-1-(diphenylmethylcarbamoyl)propyl]carbamoyl]-6-[(4-[[1-(2,6-dioxopiperidin-3-yl)-3-methyl-2-oxo-1,3-benzodiazol-5-yl]methyl]cyclohexyl)methyl]-12-oxo-1-azatricyclo[6.4.1.0^[4,13]]trideca-4(13),5,7-trien-11-yl]carbamoyl]-1H-indole-5-carbonylphosphonic acid] |  | 100 to 1000 |
| Cc1ncsc1-c1ccc([C@H](C)NC(=O)[C@@H]2C[C@@H](O)CN2C(=O)[C@@H](NC(=O)CCCCc2cccc(NC(=O)C(CCC(N)=O)NC(=O)[C@@H]3Cc4cccc5c4N3C(=O)[C@@H](NC(=O)c3cc4cc(C(=O)P(=O)(O)O)ccc4[nH]3)CC5)c2Cl)C(C)(C)C)cc1 (stereo partly drawn) [Compound I-246, diammonium 2-[[(2S,11S)-2-[(3-carbamoyl-1-[[2-chloro-3-(4-[[(2S)-1-[(2S,4R)-4-hydroxy-2-[[(1S)-1-[4-(4-methyl-1,3-thiazol-5-yl)phenyl]ethyl]carbamoyl]pyrrolidin-1-yl]-3,3-dimethyl-1-oxobutan-2-yl]carbamoyl]butyl)phenyl]carbamoyl]propyl)carbamoyl]-12-oxo-1-azatricyclo[6.4.1.0^[4,13]]trideca-4(13),5,7-trien-11-yl]carbamoyl]-1H-indole-5-carbonylphosphonate] |  | 10 to 100 |
| Cc1ncsc1-c1ccc([C@H](C)NC(=O)[C@@H]2C[C@@H](O)CN2C(=O)[C@@H](NC(=O)CCCc2cccc(NC(=O)[C@H](CCC(N)=O)NC(=O)[C@@H]3Cc4cccc5c4N3C(=O)[C@@H](NC(=O)c3cc4cc(C(=O)P(=O)(O)O)ccc4[nH]3)CC5)c2Cl)C(C)(C)C)cc1 [Compound I-247, diammonium 2-[[(2S,11S)-2-[[(1S)-3-carbamoyl-1-[[2-chloro-3-(3-[[(2S)-1-[(2S,4R)-4-hydroxy-2-[[(1S)-1-[4-(4-methyl-1,3-thiazol-5-yl)phenyl]ethyl]carbamoyl]pyrrolidin-1-yl]-3,3-dimethyl-1-oxobutan-2-yl]carbamoyl]propyl)phenyl]carbamoyl]propyl]carbamoyl]-12-oxo-1-azatricyclo[6.4.1.0^[4,13]]trideca-4(13),5,7-trien-11-yl]carbamoyl]-1H-indole-5-carbonylphosphonate] |  | 10 to 100 |
| Cc1ncsc1-c1ccc([C@H](C)NC(=O)[C@@H]2C[C@@H](O)CN2C(=O)[C@@H](NC(=O)CCCc2cccc(NC(=O)[C@H](CCC(N)=O)NC(=O)[C@@H]3Cc4cccc5c4N3C(=O)[C@@H](NC(=O)c3cc4cc(C(=O)P(=O)(O)O)ccc4[nH]3)CC5)c2)C(C)(C)C)cc1 [Compound I-248] |  | 10 to 100 |
